Where a name gives a salt, the structure may show the parent alone.
Molecular target: T1, human recombinant ENPP1 (Homo sapiens, UniProt P22413)
T1 construct: purchased R & D systems
T1 sequence (P22413 1-925): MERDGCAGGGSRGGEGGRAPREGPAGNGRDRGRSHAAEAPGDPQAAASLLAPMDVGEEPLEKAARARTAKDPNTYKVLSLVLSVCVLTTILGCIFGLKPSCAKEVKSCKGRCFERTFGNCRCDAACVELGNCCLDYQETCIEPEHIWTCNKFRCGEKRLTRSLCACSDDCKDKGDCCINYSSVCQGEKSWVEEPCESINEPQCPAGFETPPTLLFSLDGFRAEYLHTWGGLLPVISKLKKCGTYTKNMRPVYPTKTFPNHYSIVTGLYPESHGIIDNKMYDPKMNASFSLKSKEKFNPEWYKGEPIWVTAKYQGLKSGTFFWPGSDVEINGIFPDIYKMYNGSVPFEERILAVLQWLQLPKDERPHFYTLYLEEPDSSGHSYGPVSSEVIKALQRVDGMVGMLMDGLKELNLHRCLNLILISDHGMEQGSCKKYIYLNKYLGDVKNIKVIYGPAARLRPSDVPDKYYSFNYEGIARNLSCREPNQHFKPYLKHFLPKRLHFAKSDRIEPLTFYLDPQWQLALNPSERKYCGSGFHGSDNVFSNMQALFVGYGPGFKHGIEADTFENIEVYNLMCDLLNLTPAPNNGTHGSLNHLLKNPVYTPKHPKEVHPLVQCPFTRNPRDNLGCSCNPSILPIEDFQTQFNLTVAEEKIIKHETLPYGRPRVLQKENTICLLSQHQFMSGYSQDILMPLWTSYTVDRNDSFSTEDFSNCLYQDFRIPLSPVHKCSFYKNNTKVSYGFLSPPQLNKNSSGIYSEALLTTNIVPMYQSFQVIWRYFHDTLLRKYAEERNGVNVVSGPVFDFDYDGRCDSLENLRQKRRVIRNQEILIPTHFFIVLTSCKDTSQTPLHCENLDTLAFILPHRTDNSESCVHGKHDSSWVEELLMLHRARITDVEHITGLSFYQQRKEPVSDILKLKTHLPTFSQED
Assay: ENPP1 enzyme assay with cGAMP substrate (AMP-Glo luminescence)
Type: biochemical
Conditions: human recombinant ENPP1 3 ng/reaction, cGAMP 5 μM, 37° C. 90 minutes, read-out: Enzymatic activity (ENPP1 IC50)
Experimental: ENPP1 hydrolyzes nucleotides or nucleotide derivatives to produce nucleoside -5′-monophosphate and pyrophosphate. in addition, ENPP1 hydrolyzes 2′,3′-cGAMP to produce 5′-adenosine monophosphate (AMP) and 5′-guanosine monophosphate (GMP). AMP produced from the reaction is measured using the AMP-Glo® kit (Promega). The AMP-Glo® kit contains two reagents. The first reagent terminates the AMP-producing enzymatic reaction, removes ATP and converts the produced AMP into ADP. The second reagent converts ADP to ATP which is used to generate luminescence in the luciferase reaction. The amount of luminescence measured is proportional to the amount of AMP produced by ENPP1.
The final reaction mixture contains 50 mM Tris (pH 8.5) buffer, 250 mM NaCl, 0.5 mM. CaCl2, 1 μM ZnCl2, 5% glycerol and 1% DMSO. […] The reaction was initiated by addition of cGAMP (at a final concentration of 5 μM) and reacted at 37° C. for 90 minutes. At the end of the reaction, 10 μl of the AMP-Glo first reagent was added to stop the reaction and the result was stored at room temperature for […]. After storage, 20 μl of an AMP detection solution (a mixture of AMP-Glo II reagent and Kinase-Gio at a ratio of 1:100) was added and stored at room. temperature for 1 hour. Luminescence signals were measured using a Victor® plate reader (Perkin Elmer). The maximal activity control (containing enzymes and substrates only in the presence of 1% DMSO; MAX) and the minimal activity control (containing substrates and 1% DMSO; MIN) were evaluated simultaneously. In each experiment, serially diluted reference ENPP1 inhibitors were tested together. IC50, indicating % residual activity versus compound concentration was determined by fitting inhibition curves using the 3-parameter analysis of GraphPad Prism® software. Serially diluted samples of one compound were tested two or more times and an average IC50 of each compound was calculated.

Row | Structure (SMILES) | IC50 [µM]
1 | COc1cc2c(-c3ccc4c(c3)CCNC4)nn(C)c(=O)c2cc1OC [Compound No. 58, 6,7-dimethoxy-2-methyl-4-(1,2,3,4-tetrahydroisoquinolin-6-yl)phthalazin-1(2H)-one hydrochloride] | 1 to 10
2 | NCc1ccc(-c2n[nH]c(=O)c3ccccc23)cc1C(F)(F)F [Compound No. 53, 4-(4-(aminomethyl)-3-(trifluoromethyl)phenyl)phthalazin-1(2H)-one hydrochloride] | < 1
3 | NS(=O)(=O)Nc1ccc(Cc2n[nH]c(=O)c3ccccc23)c(C(F)(F)F)c1 [Example 191, N-(3-(trifluorobenzylmethyl)-4-((4-oxo-3,4-dihydrophthalazin-1-yl)methyl)phenyl)sulfamide hydrochloride] | < 1
4 | COc1cc2c(N3CCC(CNS(=O)(=O)NC(=O)OC(C)(C)C)CC3)n[nH]c(=O)c2cc1OC [Compound No. 137, tert-butyl N-((1-(6,7-dimethoxy-4-oxo-3,4-dihydrophthalazin-1-yl)piperidin-4-yl)methyl)sulfamoyl carbamate] | > 10
5 | Cc1ccc(S(=O)(=O)NCc2ccc(-c3n[nH]c(=O)c4ccccc34)cc2)cc1 [Example 197, 4-methyl-N-(4-(4-oxo-3,4-dihydrophthalazin-1-yl)benzyl)benzenesulfonamide] | > 10
6 | COc1cc2c(-c3cccc(CNS(N)(=O)=O)c3)n[nH]c(=O)c2cc1OC [Compound No. 109, N-(3-(6,7-dimethoxy-4-oxo-3,4-dihydrophthalazin-1-yl)-benzyl) sulfamide] | 1 to 10
7 | COc1ccc2c(=O)[nH]nc(-c3ccc(CNS(=O)(=O)NC(=O)OC(C)(C)C)cc3)c2c1 [Compound No. 72] | > 10
8 | NS(=O)(=O)Nc1ccc(Cc2n[nH]c(=O)c3ccccc23)c(F)c1 [Example 189, N-(3-fluoro-4-((4-oxo-3,4-dihydrophthalazin-1-yl)methyl)phenyl)sulfamide hydrochloride] | < 1
9 | CN(Cc1ccc(-c2n[nH]c(=O)c3ccccc23)cc1)S(N)(=O)=O [Compound No. 127, N-methyl-N-(4-(4-oxo-3,4-dihydrophthalazin-1-yl)benzyl)sulfamide] | < 1
10 | NS(=O)(=O)NCc1ccc(-c2nn(Cc3ccc(F)cc3)c(=O)c3ccccc23)cc1 [Compound No. 102, N-(4-(3-(4-fluorobenzyl)-4-oxo-3,4-dihydrophthalazin-1-yl)benzyl)sulfamide hydrochloride] | 1 to 10
11 | COc1cc2c(Cc3ccc(N(C)S(N)(=O)=O)cc3)nn(C)c(=O)c2cc1OC [Example 186, N-(4-((6,7-dimethoxy-3-methyl-4-oxo-3,4-dihydrophthalazin-1-yl)methyl)phenyl)-N-methylsulfamide hydrochloride] | < 1
12 | CC(C)(C)OC(=O)Nc1cccc(-c2nn(Cc3ccccc3)c(=O)c3ccccc23)c1 [Compound No. 4, tert-butyl (3(3-benzyl-4-oxo-3,4-dihydrophthalazin-1-yl)phenyl)carbamate] | > 10
13 | CS(=O)(=O)NCc1ccc(-c2n[nH]c(=O)c3ccccc23)cc1 [Example 195, N-(4-(4-oxo-3,4-dihydrophthalazin-1-yl)benzyl)methanesulfonamide] | > 10
14 | CC(C)(C)OC(=O)NCc1ccc(-c2n[nH]c(=O)c3ccccc23)cc1C(F)(F)F [Compound No. 24, tert-butyl 4-(4-oxo-3,4-dihydrophthalazin-1-yl)-2-(trifluoromethyl)benzyl carbamate] | > 10
15 | COc1ccc2c(=O)[nH]nc(-c3ccc(CNC(=O)OC(C)(C)C)cc3)c2c1 [Compound No. 15, tert-butyl (4-(7-methoxy-4-oxo-3,4-dihydrophthalazin-1-yl)benzyl)carbamate] | > 10
16 | O=c1[nH]nc(-c2ccc(CNS(=O)(=O)c3cccs3)cc2)c2ccccc12 [Example 198, N-(4-(4-oxo-3,4-dihydrophthalazin-1-yl)benzyl)thiophene-2-sulfonamide] | > 10
17 | COc1cc2c(-c3ccc(CNS(N)(=O)=O)cc3F)n[nH]c(=O)c2cc1OC [Compound No. 112, N-(4-(6,7-dimethoxy-4-oxo-3,4-dihydrophthalazin-1-yl)-3-fluorobenzyl)sulfamide hydrochloride] | 1 to 10
18 | COc1cc2c(Cc3cccc(Br)c3)n[nH]c(=O)c2cc1OC [Example 193] | > 10
19 | COc1ccc2c(-c3ccc(CNC(=O)OC(C)(C)C)cc3)nn(C)c(=O)c2c1 [Compound No. 18, tert-butyl (4-(6-methoxy-3-methyl-4-oxo-3,4-dihydrophthalazin-1-yl)benzyl)carbamate] | > 10
20 | NS(=O)(=O)NCc1ccc(-c2n[nH]c(=O)c3ccccc23)cc1C(F)(F)F [Compound No. 126, N-(4-(4-oxo-3,4-dihydrophthalazin-1-yl)-2-(trifluoromethyl)benzyl)sulfamide hydrochloride] | < 1
21 | NCc1cccc(-c2nn(Cc3ccccc3)c(=O)c3ccccc23)c1 [Compound No. 35, 4-(3-(aminomethyl)phenyl)-2-benzylphthalazin-1(2H)-one hydrochloride] | > 10
22 | NCc1ccc(-c2nn(-c3ccccc3)c(=O)c3ccccc23)cc1 [Compound No. 40, 4-(4-aminomethyl)phenyl)-2-phenylphthalazin-1(2H)-one hydrochloride] | 1 to 10
23 | CN(c1ccc(Cc2n[nH]c(=O)c3ccccc23)cc1)S(N)(=O)=O [Example 184, N-methyl-N-(4-((4-oxo-3,4-dihydrophthalazin-1-yl)methyl)phenyl)sulfamide hydrochloride] | 1 to 10
24 | COc1cc2c(-c3ccc(CNS(N)(=O)=O)c(F)c3)n[nH]c(=O)c2cc1OC [Compound No. 111, N-(4-(6,7-dimethoxy-4-oxo-3,4-dihydrophthalazin-1-yl)-2-fluorobenzyl)sulfamide hydrochloride] | < 1
25 | COc1cc2c(-c3ccc(CNS(=O)(=O)NC(=O)OC(C)(C)C)cc3)n[nH]c(=O)c2cc1OC [Compound No. 76, tert-butyl (N-(4-(6,7-dimethoxy-4-oxo-3,4-dihydrophthalazin-1-yl)benzyl)sulfamoyl)carbamate] | 1 to 10
26 | NS(=O)(=O)NCc1ccc(-c2nn(-c3ccccc3)c(=O)c3ccccc23)cc1 [Compound No. 100, N-(4-(4-oxo-3-phenyl-3,4-dihydrophthalazin-1-yl)benzyl)sulfamide hydrochloride] | < 1
27 | COc1cc2c(Cc3ccc4c(c3)CCN4)nn(C)c(=O)c2cc1OC [Example 166, 4-(indolin-5-yl-methyl)-6,7-dimethoxy-2-methylphthalazin-1(2H)-one hydrochloride] | > 10
28 | CC(C)n1nc(-c2ccc(CN)cc2)c2ccccc2c1=O [Compound No. 39, 4-(4-(aminomethyl)phenyl)-2-isopropylphthalazin-1-(2H)-one hydrochloride] | > 10
29 | COc1cc2c(-c3ccc4c(c3)CCN(C(=O)OC(C)(C)C)C4)nn(C)c(=O)c2cc1OC [Compound No. 29, tert-butyl-6-(6,7-dimethoxy-3-methyl-4-oxo-3,4-dihydrophthalazin-1-yl)-3,4-dihydroisoquinoline-2(1H)-carboxylate] | > 10
30 | COc1ccc2c(=O)[nH]nc(-c3ccc(CN)cc3)c2c1 [Compound No. 43, 4-(4-(aminomethyl)phenyl)-6-methoxyphthalazin-1(2H)-one hydrochloride] | < 1
